Values after ≈ are worked out from the molar mass of the structure shown. Read-outs that look alike come from different tables or passages of the source.
Experiments:
Assay type in all cases: physicochemical
[1] = Prodrug stability in D2O by proton NMR; settings: for Remaining Prodrug: water (D2O), room temperature
Protocol: (4-acetamidophenyl carbonic) phosphoric (29.5 mg) was dissolved in D2O (0.7 mL) and monitored by proton NMR.

[2] = Prodrug stability in propylene glycol-d8 at low temperature by 1H NMR
Protocol: Two samples of (4-acetamidophenyl carbonic) phosphoric anhydride (20 mg each) were dissolved in propylene glycol-d8 (600 mg) and the samples were stored at 4° C. and −20° C.

[3] = Prodrug stability in propylene glycol-d8 at room temperature by 1H and 31P NMR
Protocol: (4-acetamidophenyl carbonic) phosphoric anhydride (20.4 mg) was dissolved in 600 mg propylene glycol-d8 and ^1H and ^31P NMR spectra were recorded at room temperature. In addition to (4-acetamidophenyl carbonic) phosphoric anhydride (d−766 ppm), there were peaks at d+334, 265 (likely H3PO4) and +203 ppm.

[4] = Solubility of the prodrug in water, glycerol and propylene glycol; settings: for solubility: thermodynamic from solid
Protocol: Solubility of the prodrug (4-acetamidophenyl carbonic) phosphoric anhydride was determined in water, glycerol, and propylene glycol. 10 mg of (4-acetamidophenyl carbonic) phosphoric anhydride was weighed into a vial, small amounts of solvent were added and the mixture was sonicated until a solution formed.

CC(=O)Nc1ccc(OC(=O)OP(=O)(O)O)cc1 [(4-acetamidophenyl carbonic) phosphoric anhydride]
half-life at 42.1 mg/mL ([1]; D2O, 29.5 mg in 0.7 mL): ~1.5 h
Remaining Prodrug ([1]; 3 min): 94.4%
Remaining Prodrug ([1]; 9 min): 90.3%
Remaining Prodrug ([1]; 14 min): 86.4%
Remaining Prodrug ([1]; 29 min): 75.7%
Remaining Prodrug ([1]; 39 min): 70.9%
Remaining Prodrug ([1]; 49 min): 65.6%
Remaining Prodrug ([1]; 60 min): 61.0%
Remaining Prodrug ([1]; 75 min): 55.5%
Remaining Prodrug ([1]; 90 min): 50.6%
Remaining Prodrug ([1]; 105 min): 46.0%
Remaining Prodrug ([1]; 120 min): 41.7%
Remaining Prodrug ([1]; 146 min): 36.7%
Remaining Prodrug ([1]; 188 min): 29.3%
Remaining Prodrug ([1]; 270 min): 20.2%
Remaining Prodrug ([1]; 375 min): 13.9%
Remaining Prodrug ([1]; 420 min): 11.7%
Remaining Prodrug ([1]; 495 min): 8.4%
Remaining Prodrug ([1]; 840 min): 3.0%
Remaining Prodrug ([1]; 1410 min): 1.4%
Effect of low temperature storage on stability ([2]; propylene glycol-d8, 4° C. and −20° C.): low temperature storage improved the stability
Acetaminophen Formation ([2]; propylene glycol-d8, 4° C., 0.17 h): 7.1%
Acetaminophen Formation ([2]; propylene glycol-d8, 4° C., 19.3 h): 37.8%
Acetaminophen Formation ([2]; propylene glycol-d8, 4° C., 44.5 h): 58.5%
Acetaminophen Formation ([2]; propylene glycol-d8, 4° C., 68.7 h): 71.5%
Acetaminophen Formation ([2]; propylene glycol-d8, 4° C., 94.0 h): 79.3%
Acetaminophen Formation ([2]; propylene glycol-d8, 4° C., 116 h): 83.1%
Acetaminophen Formation ([2]; propylene glycol-d8, 4° C., 140 h): 84.6%
Acetaminophen Formation ([2]; propylene glycol-d8, −20° C., 0.17 h): 10.1%
Acetaminophen Formation ([2]; propylene glycol-d8, −20° C., 19.3 h): 15.0%
Acetaminophen Formation ([2]; propylene glycol-d8, −20° C., 44.5 h): 20.5%
Acetaminophen Formation ([2]; propylene glycol-d8, −20° C., 68.7 h): 25.0%
Acetaminophen Formation ([2]; propylene glycol-d8, −20° C., 94.0 h): 29.0%
Acetaminophen Formation ([2]; propylene glycol-d8, −20° C., 116 h): 32.2%
Acetaminophen Formation ([2]; propylene glycol-d8, −20° C., 140 h): 36.2%
half-life at 34 mg/g solvent [3]: ~6.3 h
Remaining Prodrug 1H NMR ([3]; 10 min): 94.03%
Remaining Prodrug 31P NMR ([3]; 10 min): 96.7%
Remaining Prodrug 1H NMR ([3]; 18 min): 92.64%
Remaining Prodrug 31P NMR ([3]; 18 min): 94.5%
Remaining Prodrug 1H NMR ([3]; 28 min): 90.79%
Remaining Prodrug 31P NMR ([3]; 28 min): 92.1%
Remaining Prodrug 1H NMR ([3]; 41 min): 88.57%
Remaining Prodrug 31P NMR ([3]; 41 min): 89.9%
Remaining Prodrug 1H NMR ([3]; 51 min): 86.84%
Remaining Prodrug 31P NMR ([3]; 51 min): 88.4%
Remaining Prodrug 1H NMR ([3]; 61 min): 85.36%
Remaining Prodrug 31P NMR ([3]; 61 min): 86.4%
Remaining Prodrug 1H NMR ([3]; 70 min): 83.93%
Remaining Prodrug 31P NMR ([3]; 70 min): 85.0%
Remaining Prodrug 1H NMR ([3]; 120 min): 74.63%
Remaining Prodrug 31P NMR ([3]; 120 min): 77.6%
Remaining Prodrug 1H NMR ([3]; 169 min): 68.80%
Remaining Prodrug 31P NMR ([3]; 169 min): 71.7%
Remaining Prodrug 1H NMR ([3]; 228 min): 62.97%
Remaining Prodrug 31P NMR ([3]; 228 min): 64.9%
Remaining Prodrug 1H NMR ([3]; 297 min): 56.82%
Remaining Prodrug 31P NMR ([3]; 297 min): 57.4%
Remaining Prodrug 1H NMR ([3]; 345 min): 52.10%
Remaining Prodrug 31P NMR ([3]; 345 min): 52.8%
Remaining Prodrug 1H NMR ([3]; 380 min): 49.13%
Remaining Prodrug 31P NMR ([3]; 380 min): 49.6%
Remaining Prodrug 1H NMR ([3]; 425 min): 46.33%
Remaining Prodrug 31P NMR ([3]; 425 min): 46.6%
Remaining Prodrug 1H NMR ([3]; 446 min): 45.67%
Remaining Prodrug 31P NMR ([3]; 446 min): 44.0%
Remaining Prodrug 1H NMR ([3]; 1269 min): 19.61%
Remaining Prodrug 31P NMR ([3]; 1269 min): 17.1%
solubility ([4]; organic solvent or mixture, glycerol d=1.25 g/mL, read-out: Solubility in glycerol): 20.6 mg/mL (≈ 74.9 mM)
solubility ([4]; organic solvent or mixture, propylene glycol d=1.036 g/mL, read-out: Solubility in propylene glycol): 154 mg/mL (≈ 560 mM)
solubility ([4]; water, room temperature, read-out: Solubility in water): 152 mg/mL (≈ 552 mM)
Water solubility relative to acetaminophen ([4]; water, room temperature): more than 10 times

Source: patent publication US11136342B2, “Carbonate prodrugs and methods of using the same” (Acorda Therapeutics, Inc., priority 2008, dated 2021)
